# Experimental data: patent US7375083B2, “Pharmaceutical compositions for prevention of overdose or abuse” (Shire LLC, priority 2003, dated 2008)
# How the values were obtained:
# [1] = system: Anesthetized Dog; test: Cardiovascular effects after intravenous bolus injection in anesthetized dogs
# [2] = Intranasal bioavailability in rats, LC/MS/MS; conditions: male, Sprague-Dawley, rat, plasma, inhaled or intranasal, 3 mg/kg
# [3] = molecular target: T1, human recombinant dopamine transport binding sites (Homo sapiens, UniProt Q01959); test: Radioligand binding, dopamine transporter; conditions: 10^−9 to 10^−5 M
# T1 construct: purchased Novascreen, Hanover, Md
# T1 sequence (Q01959 whole entry): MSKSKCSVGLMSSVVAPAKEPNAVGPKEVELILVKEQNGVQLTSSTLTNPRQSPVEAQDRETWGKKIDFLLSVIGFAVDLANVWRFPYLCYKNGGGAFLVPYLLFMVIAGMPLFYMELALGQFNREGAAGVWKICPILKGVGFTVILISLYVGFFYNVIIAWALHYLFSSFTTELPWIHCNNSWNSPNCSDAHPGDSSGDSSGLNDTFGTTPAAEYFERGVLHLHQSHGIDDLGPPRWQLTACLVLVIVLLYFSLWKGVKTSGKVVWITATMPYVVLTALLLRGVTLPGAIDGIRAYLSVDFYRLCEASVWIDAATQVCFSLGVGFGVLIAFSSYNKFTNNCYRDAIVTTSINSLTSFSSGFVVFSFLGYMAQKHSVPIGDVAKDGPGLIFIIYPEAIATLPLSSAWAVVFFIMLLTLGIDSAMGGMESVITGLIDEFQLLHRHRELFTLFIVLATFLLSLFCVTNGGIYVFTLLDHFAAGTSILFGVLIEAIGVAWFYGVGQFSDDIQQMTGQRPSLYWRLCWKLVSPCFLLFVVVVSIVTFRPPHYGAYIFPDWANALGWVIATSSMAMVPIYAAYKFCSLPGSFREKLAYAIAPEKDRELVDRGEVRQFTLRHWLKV
smiles,measurement,setting,value
"CC(Cc1ccccc1)NC(=O)C(N)CCCCN [L-lysine-d-amphetamine, 2,6-diaminohexanoic acid-(1-methyl-2-phenylethyl)-amide]",DAP % Change from respective Time 0,"[1]; 0.5 mg/kg, TIME 0",0%
same,DAP - diastolic arterial pressure,"[1]; 0.5 mg/kg, TIME 0",51 mmHg
same,LVP % Change from respective Time 0,"[1]; 0.5 mg/kg, TIME 0",0%
same,LVP - left ventricular pressure,"[1]; 0.5 mg/kg, TIME 0",86 mmHg
same,MAP % Change from respective Time 0,"[1]; 0.5 mg/kg, TIME 0",0%
same,MAP - mean arterial pressure,"[1]; 0.5 mg/kg, TIME 0",64 mmHg
same,SAP % Change from respective Time 0,"[1]; 0.5 mg/kg, TIME 0",0%
same,SAP - systolic arterial pressure,"[1]; 0.5 mg/kg, TIME 0",84 mmHg
same,DAP % Change from respective Time 0,"[1]; 0.5 mg/kg, TIME 5",3%
same,DAP - diastolic arterial pressure,"[1]; 0.5 mg/kg, TIME 5",52 mmHg
same,LVP % Change from respective Time 0,"[1]; 0.5 mg/kg, TIME 5",2%
same,LVP - left ventricular pressure,"[1]; 0.5 mg/kg, TIME 5",87 mmHg
same,MAP % Change from respective Time 0,"[1]; 0.5 mg/kg, TIME 5",3%
same,MAP - mean arterial pressure,"[1]; 0.5 mg/kg, TIME 5",66 mmHg
same,SAP % Change from respective Time 0,"[1]; 0.5 mg/kg, TIME 5",4%
same,SAP - systolic arterial pressure,"[1]; 0.5 mg/kg, TIME 5",87 mmHg
same,DAP % Change from respective Time 0,"[1]; 0.5 mg/kg, TIME 15",1%
same,DAP - diastolic arterial pressure,"[1]; 0.5 mg/kg, TIME 15",51 mmHg
same,LVP % Change from respective Time 0,"[1]; 0.5 mg/kg, TIME 15",11%
same,LVP - left ventricular pressure,"[1]; 0.5 mg/kg, TIME 15",95 mmHg
same,MAP % Change from respective Time 0,"[1]; 0.5 mg/kg, TIME 15",5%
same,MAP - mean arterial pressure,"[1]; 0.5 mg/kg, TIME 15",67 mmHg
same,SAP % Change from respective Time 0,"[1]; 0.5 mg/kg, TIME 15",11%
same,SAP - systolic arterial pressure,"[1]; 0.5 mg/kg, TIME 15",93 mmHg
same,DAP % Change from respective Time 0,"[1]; 0.5 mg/kg, TIME 25",8%
same,DAP - diastolic arterial pressure,"[1]; 0.5 mg/kg, TIME 25",55 mmHg
same,LVP % Change from respective Time 0,"[1]; 0.5 mg/kg, TIME 25",22%
same,LVP - left ventricular pressure,"[1]; 0.5 mg/kg, TIME 25",105 mmHg
same,MAP % Change from respective Time 0,"[1]; 0.5 mg/kg, TIME 25",15%
same,MAP - mean arterial pressure,"[1]; 0.5 mg/kg, TIME 25",73 mmHg
same,SAP % Change from respective Time 0,"[1]; 0.5 mg/kg, TIME 25",25%
same,DAP % Change from respective Time 0,"[1]; 0.5 mg/kg, TIME 30",14%
same,DAP - diastolic arterial pressure,"[1]; 0.5 mg/kg, TIME 30",58 mmHg
same,LVP % Change from respective Time 0,"[1]; 0.5 mg/kg, TIME 30",26%
same,MAP % Change from respective Time 0,"[1]; 0.5 mg/kg, TIME 30",21%
same,MAP - mean arterial pressure,"[1]; 0.5 mg/kg, TIME 30",77 mmHg
same,SAP % Change from respective Time 0,"[1]; 0.5 mg/kg, TIME 30",28%
same,DAP % Change from respective Time 0,"[1]; 1.0 mg/kg, TIME 0",0%
same,DAP - diastolic arterial pressure,"[1]; 1.0 mg/kg, TIME 0",55 mmHg
same,LVP % Change from respective Time 0,"[1]; 1.0 mg/kg, TIME 0",0%
same,MAP % Change from respective Time 0,"[1]; 1.0 mg/kg, TIME 0",0%
same,MAP - mean arterial pressure,"[1]; 1.0 mg/kg, TIME 0",74 mmHg
same,SAP % Change from respective Time 0,"[1]; 1.0 mg/kg, TIME 0",0%
same,SAP - systolic arterial pressure,"[1]; 1.0 mg/kg, TIME 0",105 mmHg
same,DAP % Change from respective Time 0,"[1]; 1.0 mg/kg, TIME 5",15%
same,DAP - diastolic arterial pressure,"[1]; 1.0 mg/kg, TIME 5",63 mmHg
same,LVP % Change from respective Time 0,"[1]; 1.0 mg/kg, TIME 5",11%
same,LVP - left ventricular pressure,"[1]; 1.0 mg/kg, TIME 5",120 mmHg
same,MAP % Change from respective Time 0,"[1]; 1.0 mg/kg, TIME 5",15%
same,MAP - mean arterial pressure,"[1]; 1.0 mg/kg, TIME 5",85 mmHg
same,SAP % Change from respective Time 0,"[1]; 1.0 mg/kg, TIME 5",15%
same,DAP % Change from respective Time 0,"[1]; 1.0 mg/kg, TIME 15",33%
same,DAP - diastolic arterial pressure,"[1]; 1.0 mg/kg, TIME 15",73 mmHg
same,LVP % Change from respective Time 0,"[1]; 1.0 mg/kg, TIME 15",29%
same,LVP - left ventricular pressure,"[1]; 1.0 mg/kg, TIME 15",140 mmHg
same,MAP % Change from respective Time 0,"[1]; 1.0 mg/kg, TIME 15",35%
same,MAP - mean arterial pressure,"[1]; 1.0 mg/kg, TIME 15",100 mmHg
same,SAP % Change from respective Time 0,"[1]; 1.0 mg/kg, TIME 15",35%
same,DAP % Change from respective Time 0,"[1]; 1.0 mg/kg, TIME 25",75%
same,DAP - diastolic arterial pressure,"[1]; 1.0 mg/kg, TIME 25",97 mmHg
same,LVP % Change from respective Time 0,"[1]; 1.0 mg/kg, TIME 25",50%
same,MAP % Change from respective Time 0,"[1]; 1.0 mg/kg, TIME 25",68%
same,SAP % Change from respective Time 0,"[1]; 1.0 mg/kg, TIME 25",55%
same,DAP % Change from respective Time 0,"[1]; 1.0 mg/kg, TIME 30",32%
same,DAP - diastolic arterial pressure,"[1]; 1.0 mg/kg, TIME 30",73 mmHg
same,LVP % Change from respective Time 0,"[1]; 1.0 mg/kg, TIME 30",33%
same,MAP % Change from respective Time 0,"[1]; 1.0 mg/kg, TIME 30",32%
same,MAP - mean arterial pressure,"[1]; 1.0 mg/kg, TIME 30",98 mmHg
same,SAP % Change from respective Time 0,"[1]; 1.0 mg/kg, TIME 30",28%
same,DAP % Change from respective Time 0,"[1]; 5.0 mg/kg, TIME 0",0%
same,DAP - diastolic arterial pressure,"[1]; 5.0 mg/kg, TIME 0",71 mmHg
same,LVP % Change from respective Time 0,"[1]; 5.0 mg/kg, TIME 0",0%
same,MAP % Change from respective Time 0,"[1]; 5.0 mg/kg, TIME 0",0%
same,MAP - mean arterial pressure,"[1]; 5.0 mg/kg, TIME 0",95 mmHg
same,SAP % Change from respective Time 0,"[1]; 5.0 mg/kg, TIME 0",0%
same,SAP - systolic arterial pressure,"[1]; 5.0 mg/kg, TIME 0",132 mmHg
same,DAP % Change from respective Time 0,"[1]; 5.0 mg/kg, TIME 5",0%
same,DAP - diastolic arterial pressure,"[1]; 5.0 mg/kg, TIME 5",71 mmHg
same,LVP % Change from respective Time 0,"[1]; 5.0 mg/kg, TIME 5",5%
same,MAP % Change from respective Time 0,"[1]; 5.0 mg/kg, TIME 5",4%
same,MAP - mean arterial pressure,"[1]; 5.0 mg/kg, TIME 5",99 mmHg
same,SAP % Change from respective Time 0,"[1]; 5.0 mg/kg, TIME 5",7%
same,DAP % Change from respective Time 0,"[1]; 5.0 mg/kg, TIME 15",39%
same,DAP - diastolic arterial pressure,"[1]; 5.0 mg/kg, TIME 15",98 mmHg
same,LVP % Change from respective Time 0,"[1]; 5.0 mg/kg, TIME 15",28%
same,MAP % Change from respective Time 0,"[1]; 5.0 mg/kg, TIME 15",37%
same,MAP - mean arterial pressure,"[1]; 5.0 mg/kg, TIME 15",130 mmHg
same,SAP % Change from respective Time 0,"[1]; 5.0 mg/kg, TIME 15",33%
same,DAP % Change from respective Time 0,"[1]; 5.0 mg/kg, TIME 25",−3%
same,DAP - diastolic arterial pressure,"[1]; 5.0 mg/kg, TIME 25",69 mmHg
same,LVP % Change from respective Time 0,"[1]; 5.0 mg/kg, TIME 25",11%
same,LVP - left ventricular pressure,"[1]; 5.0 mg/kg, TIME 25",160 mmHg
same,MAP % Change from respective Time 0,"[1]; 5.0 mg/kg, TIME 25",1%
same,MAP - mean arterial pressure,"[1]; 5.0 mg/kg, TIME 25",96 mmHg
same,SAP % Change from respective Time 0,"[1]; 5.0 mg/kg, TIME 25",−5%
same,DAP % Change from respective Time 0,"[1]; 5.0 mg/kg, TIME 30",−1%
same,DAP - diastolic arterial pressure,"[1]; 5.0 mg/kg, TIME 30",70 mmHg
same,LVP % Change from respective Time 0,"[1]; 5.0 mg/kg, TIME 30",13%
same,MAP % Change from respective Time 0,"[1]; 5.0 mg/kg, TIME 30",4%
same,MAP - mean arterial pressure,"[1]; 5.0 mg/kg, TIME 30",99 mmHg
same,SAP % Change from respective Time 0,"[1]; 5.0 mg/kg, TIME 30",0%
same,SAP - systolic arterial pressure,"[1]; 5.0 mg/kg, TIME 30",132 mmHg
same,Effect on mean blood pressure after the first (lowest) dose,"[1]; dog, IV bolus, 0.202 mg/kg d-amphetamine, equimolar to 0.5 mg/kg L-lysine-d-amphetamine",very little change in mean BP
same,Increase of mean blood pressure,"[1]; dog, IV bolus, approximately 30 minutes after injection",20-50%
same,AUC(0-inf),[2],9140 ng·h/mL
same,AUC(0-t),[2],2580 ng·h/mL
same,Cmax,[2],3350 ng/mL
same,Tmax,[2],15 min
same,Specific binding,[3],did not bind
